Assay results from patent publication US20210341448A1, “SCREENING METHOD FOR THERAPEUTIC DRUG OR PROPHYLACTIC DRUG FOR TAUOPATHY AND DIAGNOSTIC METHOD FOR TAUOPATHY” (National Center for Geriatrics and Gerontology, priority 2018, published 2021).

Assays:
[1] = system: postsynaptic NMDAR and AMPAR; experiment: Western blot of NMDA and AMPA receptor amounts on the synapse, brain slices of tau knockout mice; conditions: tau knockout mouse brain slice
Experimental: The brain slice specimens were frozen and disrupted in a 50-fold volume of homogenizing buffer (4 mM of HEPES, 2 mM of EGTA, 0.32 M of sucrose, pH 7.4) using a Teflon® homogenizer. The disrupted tissue solution was centrifuged at 4° C., 1,000×g for 15 minutes to thereby collect the supernatant, and the supernatant was further centrifuged at 4° C., 12,000×g for 15 minutes to thereby collect membrane fractions (pellets). The obtained membrane fractions were dissolved in tris-buffered saline containing 0.5% Triton X-100 (50 mM of Tris, 500 mM of NaCl, pH 7.4) and were centrifuged at 4° C., 20,000×g for 15 minutes. The supernatant was used as a 0.5% Triton X-100-soluble membrane fraction sample and the pellet was used as a 0.5% Triton X-100-insoluble membrane fraction sample. The western blot was carried out on the 0.5% Triton X-100-insoluble membrane fraction sample to quantify the AMPA receptor (GluA2 subunit) and the NMDA receptors (NR2a and NR2b subunits). The antibodies used were an anti-Glu2 antibody (Alomone Labs, #AGC-073) (1:1000 dilution), an anti-NR2A antibody (Alomone Labs, #AGC-002) (1:1000 dilution), and an anti-NR2B antibody (Alomone Labs, #AGC-003) (1:1000 dilution).
In the tau knockout mice, the reduction of NMDARs and AMPARs on the synapse by the exposure of the tau oligomer sample was not observed.

NT2-N cells = experiment: Adhesion activity of tau oligomers to NT2-N cell surface (fluorescence microscopy); format: cell-based, human; conditions: on ice 30 minutes, no membrane permeabilization
Experimental: Cal-520 AM was loaded to the NT2-N cells prepared in the above (4-1) by the procedure of the above (4-2), exposed to the tau oligomer sample (10 μl/ml) prepared in the above (1-3) and incubated on ice for 30 minutes. Subsequently, the cells were washed 3 times with DPBS(−) (137 mM of NaCl, 2.68 mM of KCl, 1.47 mM of KH2PO4, 8.06 mM of Na2HPO4) and fixed with 4% paraformaldehyde at room temperature for 15 minutes. After thorough washing with DPBS(−) (10 minutes×3 times), blocking was done with 1% BSA and 3% donkey serum/DPBS for 30 minutes. Then, the anti-phosphorylated tau antibody (anti-pTau (paired pS409, pS412, pS413), AnaSpec, #AS-55416) (1:1500 dilution) as the primary antibody was reacted at room temperature for 1 hour, and Alexa594-labelled anti-mouse IgG (Jackson Immuno Research, #711-585-152) (1:1500 dilution) as a secondary antibody was reacted at room temperature for 30 minutes, to thereby carry out immunostaining. The stained cells were observed using a fluorescence microscope (BZ-X710, Keyence Corporation).
The HT-tau oligomer sample prepared in the above (1-4), instead of the tau oligomer sample prepared in the above (1-3), was exposed to the NT2-N cells by the same procedure as in the above (5-1). After thorough washing, fluorescence microscopic observation was carried out.

NMDAR = target: T1, NMDAR (Mus musculus, UniProt P35436+P35438+Q01097); experiment: Pull-down assay of HT-tau oligomer with membrane protein of tau knockout mouse brain; format: binding; conditions: HT-tau oligomers immobilized on HaloTag beads, western blot anti-NR1
T1 construct: from tissue
Experimental: Whether or not the tau oligomer and NMDAR directly bind and interact was confirmed by a pull-down assay using the HT-tau oligomer. Magne™ HaloTag beads (Promega Corporation, #G728A) (50 mg) were added to the HT-tau oligomer sample (100 μl) prepared in the above (1-4), and a binding reaction was carried out at 4° C. for 12 hours to thereby immobilize the HT-tau oligomers on the beads. Additionally, brain slice specimens were prepared from tau knockout mice (B6.129X1-Mapt^tm1Hnd/J, Jackson Laboratory) by the same procedure as in the above (2-1) and were homogenized in 50-fold volume of the lysis buffer (4 mM of HEPES, 2 mM of EGTA, 0.32 M of sucrose, 1% Protease Inhibitor Cocktail, 1% Phosphatase Inhibitor Cocktail (Nacalai Tesque Inc., #07575-51)), and the lysate was centrifuged at 4° C., 12,000×g for 15 minutes to thereby collect pellets. The obtained pellets were dissolved in a 2% cholic acid or 1% deoxycholate/TBS solution (25 mM of Tris-HCl, 150 mM of NaCl, pH 7.4) and the resultant was used as a membrane protein solution. […] The obtained tau oligomer-membrane protein complexes were applied to SDS-PAGE electrophoresis, and NMDARs were detected by the western blot. […]

NMDA receptor = experiment: NMDAR-based sandwich ELISA; format: binding, mouse; conditions: tau oligomer solution of 10^−11 g/ml or less

T1 sequence (P35436 23-1464, other chains not shown): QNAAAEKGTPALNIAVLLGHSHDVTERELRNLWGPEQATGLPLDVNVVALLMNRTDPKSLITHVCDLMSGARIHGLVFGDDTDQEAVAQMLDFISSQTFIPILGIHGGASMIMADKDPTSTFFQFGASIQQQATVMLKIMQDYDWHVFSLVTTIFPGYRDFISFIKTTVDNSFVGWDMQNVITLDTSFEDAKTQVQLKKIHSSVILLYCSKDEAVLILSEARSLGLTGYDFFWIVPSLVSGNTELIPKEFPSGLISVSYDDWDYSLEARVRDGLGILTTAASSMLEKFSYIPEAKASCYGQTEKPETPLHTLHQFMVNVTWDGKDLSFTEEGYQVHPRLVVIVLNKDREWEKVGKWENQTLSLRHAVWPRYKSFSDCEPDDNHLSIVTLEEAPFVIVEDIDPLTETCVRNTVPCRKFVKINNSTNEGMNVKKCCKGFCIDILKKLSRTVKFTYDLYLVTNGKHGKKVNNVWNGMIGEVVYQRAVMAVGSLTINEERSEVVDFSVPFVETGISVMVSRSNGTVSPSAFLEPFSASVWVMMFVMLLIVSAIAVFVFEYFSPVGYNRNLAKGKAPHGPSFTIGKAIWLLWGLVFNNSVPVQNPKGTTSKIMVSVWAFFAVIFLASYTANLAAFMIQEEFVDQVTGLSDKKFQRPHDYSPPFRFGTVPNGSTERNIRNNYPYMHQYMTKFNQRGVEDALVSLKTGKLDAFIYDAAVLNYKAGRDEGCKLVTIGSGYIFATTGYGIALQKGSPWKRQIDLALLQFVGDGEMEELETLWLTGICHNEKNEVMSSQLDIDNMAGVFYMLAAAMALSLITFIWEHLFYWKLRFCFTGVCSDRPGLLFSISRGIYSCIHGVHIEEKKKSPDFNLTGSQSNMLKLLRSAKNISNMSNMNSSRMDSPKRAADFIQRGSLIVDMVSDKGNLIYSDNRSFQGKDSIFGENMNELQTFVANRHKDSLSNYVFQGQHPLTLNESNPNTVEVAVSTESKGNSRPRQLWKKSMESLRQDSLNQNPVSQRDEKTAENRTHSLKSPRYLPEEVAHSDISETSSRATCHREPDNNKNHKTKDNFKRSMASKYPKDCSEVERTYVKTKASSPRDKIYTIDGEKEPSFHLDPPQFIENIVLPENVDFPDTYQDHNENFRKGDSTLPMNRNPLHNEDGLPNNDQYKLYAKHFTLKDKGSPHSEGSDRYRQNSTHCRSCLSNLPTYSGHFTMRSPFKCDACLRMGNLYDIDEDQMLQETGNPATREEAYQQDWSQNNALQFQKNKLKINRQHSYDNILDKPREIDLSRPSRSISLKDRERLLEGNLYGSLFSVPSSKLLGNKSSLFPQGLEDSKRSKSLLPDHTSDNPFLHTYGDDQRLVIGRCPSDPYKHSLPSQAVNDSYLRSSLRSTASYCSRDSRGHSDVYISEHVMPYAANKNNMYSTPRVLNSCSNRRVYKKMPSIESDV
T1 sequence (Q01097 27-1482, other chains not shown): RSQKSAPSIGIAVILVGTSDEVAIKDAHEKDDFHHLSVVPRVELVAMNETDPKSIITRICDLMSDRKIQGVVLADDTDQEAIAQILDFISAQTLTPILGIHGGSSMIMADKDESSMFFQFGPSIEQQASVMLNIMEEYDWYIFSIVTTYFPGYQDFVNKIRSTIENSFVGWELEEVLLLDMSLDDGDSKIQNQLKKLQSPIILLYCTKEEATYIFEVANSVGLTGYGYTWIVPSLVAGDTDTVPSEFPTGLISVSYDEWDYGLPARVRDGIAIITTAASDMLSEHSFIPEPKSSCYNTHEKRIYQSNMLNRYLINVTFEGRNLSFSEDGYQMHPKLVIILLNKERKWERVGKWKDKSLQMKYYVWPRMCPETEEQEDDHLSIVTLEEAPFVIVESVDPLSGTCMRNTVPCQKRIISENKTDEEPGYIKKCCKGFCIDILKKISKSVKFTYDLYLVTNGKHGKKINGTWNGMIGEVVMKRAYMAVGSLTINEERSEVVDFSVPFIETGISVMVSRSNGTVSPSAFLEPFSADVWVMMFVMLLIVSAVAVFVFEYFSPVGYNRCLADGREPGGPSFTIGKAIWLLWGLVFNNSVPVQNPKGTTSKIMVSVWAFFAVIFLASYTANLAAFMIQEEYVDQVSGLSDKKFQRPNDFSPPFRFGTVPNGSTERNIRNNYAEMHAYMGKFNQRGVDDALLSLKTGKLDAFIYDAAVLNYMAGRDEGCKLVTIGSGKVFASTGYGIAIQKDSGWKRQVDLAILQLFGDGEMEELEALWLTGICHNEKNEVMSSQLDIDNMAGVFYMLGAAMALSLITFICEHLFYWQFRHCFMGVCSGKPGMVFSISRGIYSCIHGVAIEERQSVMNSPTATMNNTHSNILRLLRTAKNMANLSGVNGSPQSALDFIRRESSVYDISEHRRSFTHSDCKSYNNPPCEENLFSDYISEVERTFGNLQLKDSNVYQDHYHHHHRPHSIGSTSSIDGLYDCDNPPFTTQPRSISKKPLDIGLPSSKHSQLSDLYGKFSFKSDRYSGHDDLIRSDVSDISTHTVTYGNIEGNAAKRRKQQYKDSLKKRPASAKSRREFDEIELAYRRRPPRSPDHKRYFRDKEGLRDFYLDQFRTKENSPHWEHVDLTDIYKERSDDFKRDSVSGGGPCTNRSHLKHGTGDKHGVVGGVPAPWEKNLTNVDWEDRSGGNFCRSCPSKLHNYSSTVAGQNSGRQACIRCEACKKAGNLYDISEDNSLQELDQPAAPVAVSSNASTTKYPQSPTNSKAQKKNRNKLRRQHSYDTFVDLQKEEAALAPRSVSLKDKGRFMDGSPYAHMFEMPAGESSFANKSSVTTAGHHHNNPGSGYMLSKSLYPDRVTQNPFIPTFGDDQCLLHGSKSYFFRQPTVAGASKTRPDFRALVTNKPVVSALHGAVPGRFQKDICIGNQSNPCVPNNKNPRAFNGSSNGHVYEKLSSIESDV

tau oligomer: polymer of human tau 2N4R monomers, polymerized with mouse brain extract and ATP, collected as pellets
reduction of AMPARs on the synapse [1]: not observed | reduction of NMDARs on the synapse [1]: not observed | adhesion to the cell surface (NT2-N cells): adhered in a patchy pattern | binding of NMDAR in pull-down assay (NMDAR): directly bound | binding of the tau oligomer to the NMDA receptor (NMDA receptor): increased in a concentration-dependent manner
